Measurements from patent publication US8188077B2, “Apoptosis-inducing agents for the treatment of cancer and immune and autoimmune diseases” (Abbott Laboratories, priority 2010, dated 2012).

Each compound was assayed against T1, Bcl-2 protein (Homo sapiens, UniProt P10415, DELINS35-91DVEENRTEAPEGTESE, form not given) (assay: Bcl-2 fluorescence polarization assay (FPA) binding). Conditions: 10 nM Bcl-2 protein, 1 nM fluorescein-labeled BAX peptide, room temperature, read-out: Bcl-2 FPA 11pt Ki.
T1 construct: fused on or other part: Bcl-xL (Q07817) residues 29-44 stand in place of Bcl-2's own unstructured loop 35-91; The C-terminal membrane anchor (208-239) is absent
T1 sequence (P10415 with tags, fused parts or gaps with the stated changes): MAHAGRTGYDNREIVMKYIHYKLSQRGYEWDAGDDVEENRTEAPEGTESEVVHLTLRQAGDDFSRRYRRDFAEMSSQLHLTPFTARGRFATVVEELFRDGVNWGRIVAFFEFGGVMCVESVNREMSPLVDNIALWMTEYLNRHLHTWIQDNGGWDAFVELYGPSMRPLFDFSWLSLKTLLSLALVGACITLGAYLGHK
Procedure: Assays for the inhibition of Bcl-2 were performed in 96-well microtiter plates. Compounds of the instant invention were diluted in DMSO to concentrations between […] and 10 pM and introduced into each well of the plate. A mixture totaling 125 µL per well of assay buffer (20 mM phosphate buffer (pH 7.4), 1 mM EDTA, 0.05% PF-68), 10 nM of Bcl-2 protein (prepared according to the procedure described in PNAS 2001, 98, 3012-3017), 1 nM fluorescein-labeled BAX peptide (prepared in-house), and the DMSO solution of the compound of the instant invention was shaken for 2 minutes and placed in a LJL Analyst (LJL Bio Systems, CA. Polarization was measured at room temperature using a continuous Fluorescein lamp (excitation 485 nm, emission 530 nm). Ki values were calculated using Microsoft Excel.

Ki | SMILES
174 nM | C[C@@H]1[C@H]2C[C@@H](C[C@H]1Nc1ccc(S(=O)(=O)NC(=O)c3ccc(N4CCN(Cc5ccccc5-c5ccc(Cl)cc5)CC4)cc3)cc1[N+](=O)[O-])C2(C)C [Example 1, 4-{4-[(4′-chlorobiphenyl-2-yl)methyl]piperazin-1-yl}-N-[(3-nitro-4-{[(1R,2R,3R,5S)-2,6,6-trimethylbicyclo[3.1.1]hept-3-yl]amino}phenyl)sulfonyl]benzamide]
191 nM | C[C@@H]1[C@@H](Nc2cccc(-c3ccc(C(=O)NS(=O)(=O)c4ccc(NCC5CCCCC5)c([N+](=O)[O-])c4)cc3)c2)C[C@H]2C[C@@H]1C2(C)C [Example 4, N-({4-[(cyclohexylmethyl)amino]-3-nitrophenyl}sulfonyl)-3′-{[(1S,2S,3S,5R)-2,6,6-trimethylbicyclo[3.1.1]hept-3-yl]amino}biphenyl-4-carboxamide]
< 20 nM | C[C@@H]1[C@@H](N(C(=O)CCc2ccccc2)C2CCN(c3ccc(C(=O)NS(=O)(=O)c4ccc(N[C@H](CCN5CCOCC5)CSc5ccccc5)c(S(=O)(=O)C(F)(F)F)c4)cc3)CC2)C[C@H]2C[C@@H]1C2(C)C [Example 9, N-[(4-{[(2R)-4-(morpholin-4-yl)-1-(phenylthio)butan-2-yl]amino}-3-[(trifluoromethyl)sulfonyl]phenyl)sulfonyl]-4-(4-{(3-phenylpropanoyl)[(1S,2S,3S,5R)-2,6,6-trimethylbicyclo[3.1.1]hept-3-yl]amino}piperidin-1-yl)benzamide]
< 20 nM | O=C(NS(=O)(=O)c1ccc(N[C@H](CCN2CCOCC2)CSc2ccccc2)c([N+](=O)[O-])c1)c1ccc(N2CCN(CC34CC5CC(CC(C5)C3)C4)CC2)cc1 [Example 10, 4-{4-[adamantan-1-ylmethyl]piperazin-1-yl}-N-[(4-{[(2R)-4-(morpholin-4-yl)-1-(phenylthio)butan-2-yl]amino}-3-nitrophenyl)sulfonyl]benzamide]
304 nM | CC12CC3CC(Br)(C1)CC(CN1CCN(c4ccc(C(=O)NS(=O)(=O)c5ccc(NCC6CCCCC6)c([N+](=O)[O-])c5)cc4)CC1)(C3)C2 (centres unmarked) [Example 12, 4-(4-{[3-bromo-5-methyladamantan-1-yl]methyl}piperazin-1-yl)-N-({4-[(cyclohexylmethyl)amino]-3-nitrophenyl}sulfonyl)benzamide]
39.7 nM | O=C(NS(=O)(=O)c1ccc(NCC2CCOCC2)c([N+](=O)[O-])c1)c1ccc(N2CCN(Cc3ccccc3NC3CC4CC3C3CCCC43)CC2)cc1 (centres unmarked) [Example 16]
30.1 nM | C[C@H]1[C@H]2C[C@H](CC2Nc2ccccc2CN2CCN(c3ccc(C(=O)NS(=O)(=O)c4ccc(NCC5CCOCC5)c([N+](=O)[O-])c4)cc3)CC2)C1(C)C (stereo partly drawn) [Example 17, N-({3-nitro-4-[(tetrahydro-2H-pyran-4-ylmethyl)amino]phenyl}sulfonyl)-4-[4-(2-{[(1R,4R,6S)-5,5,6-trimethylbicyclo[2.2.1]hept-2-yl]amino}benzyl)piperazin-1-yl]benzamide]

More lines, now with the values behind:

SMILES | Ki
CC(=O)N(C1CCN(c2ccc(C(=O)NS(=O)(=O)c3ccc(NCC4CCCCC4)c([N+](=O)[O-])c3)cc2)CC1)[C@H]1C[C@H]2C[C@@H]([C@@H]1C)C2(C)C [Example 2, 4-(4-{acetyl[(1S,2S,3S,5R)-2,6,6-trimethylbicyclo[3.1.1]hept-3-yl]amino}piperidin-1-yl)-N-({4-[(cyclohexylmethyl)amino]-3-nitrophenyl}sulfonyl)benzamide] | 220 nM
C[C@@H]1[C@@H](N(C(=O)c2ccccc2)C2CCN(c3ccc(C(=O)NS(=O)(=O)c4ccc(NCC5CCCCC5)c([N+](=O)[O-])c4)cc3)CC2)C[C@H]2C[C@@H]1C2(C)C [Example 3, 4-(4-{benzoyl[(1S,2S,3S,5R)-2,6,6-trimethylbicyclo[3.1.1]hept-3-yl]amino}piperidin-1-yl)-N-({4-[(cyclohexylmethyl)amino]-3-nitrophenyl}sulfonyl)benzamide] | 65 nM
C[C@@H]1[C@@H](N(C(=O)Cc2ccccc2)C2CCN(c3ccc(C(=O)NS(=O)(=O)c4ccc(NCC5CCCCC5)c([N+](=O)[O-])c4)cc3)CC2)C[C@H]2C[C@@H]1C2(C)C [Example 5, N-({4-[(cyclohexylmethyl)amino]-3-nitrophenyl}sulfonyl)-4-(4-{(phenylacetyl)[(1S,2S,3S,5R)-2,6,6-trimethylbicyclo[3.1.1]hept-3-yl]amino}piperidin-1-yl)benzamide] | 59.2 nM
C[C@@H]1[C@@H](Nc2ccc(-c3ccc(C(=O)NS(=O)(=O)c4ccc(NCC5CCCCC5)c([N+](=O)[O-])c4)cc3)cc2)C[C@H]2C[C@@H]1C2(C)C [Example 6, N-({4-[(cyclohexylmethyl)amino]-3-nitrophenyl}sulfonyl)-4′-{[(1S,2S,3S,5R)-2,6,6-trimethylbicyclo[3.1.1]hept-3-yl]amino}biphenyl-4-carboxamide] | 155 nM
C[C@@H]1[C@@H](N(CCCc2ccccc2)c2ccc(-c3ccc(C(=O)NS(=O)(=O)c4ccc(NCC5CCCCC5)c([N+](=O)[O-])c4)cc3)cc2)C[C@H]2C[C@@H]1C2(C)C [Example 7, N-({4-[(cyclohexylmethyl)amino]-3-nitrophenyl}sulfonyl)-4′-{(3-phenylpropyl)[(1S,2S,3S,5R)-2,6,6-trimethylbicyclo[3.1.1]hept-3-yl]amino}biphenyl-4-carboxamide] | 1260 nM
O=C(NS(=O)(=O)c1ccc(NCC2CCCCC2)c([N+](=O)[O-])c1)c1ccc(N2CCC3CC2CN3CC23CC4CC(CC(C4)C2)C3)cc1 (centres unmarked) [Example 8, 4-{6-[adamantan-1-ylmethyl]-2,6-diazabicyclo[3.2.1]oct-2-yl}-N-({4-[(cyclohexylmethyl)amino]-3-nitrophenyl}sulfonyl)benzamide] | 84.6 nM
O=C(NS(=O)(=O)c1ccc(NCC2CCCCC2)c([N+](=O)[O-])c1)c1ccc(N2C[C@@H]3C[C@H]2CN3CC23CC4CC(CC(C4)C2)C3)cc1 [Example 11, 4-{(1S,4S)-5-[adamantan-1-ylmethyl]-2,5-diazabicyclo[2.2.1]hept-2-yl}-N-({4-[(cyclohexylmethyl)amino]-3-nitrophenyl}sulfonyl)benzamide] | 1300 nM
CC12CC3CC(C)(C1)CC(CN1CCN(c4ccc(C(=O)NS(=O)(=O)c5ccc(NCC6CCCCC6)c([N+](=O)[O-])c5)cc4)CC1)(C3)C2 [Example 13, N-({4-[(cyclohexylmethyl)amino]-3-nitrophenyl}sulfonyl)-4-(4-{[3,5-dimethyladamantan-1-yl]methyl}piperazin-1-yl)benzamide] | 608 nM
CC12CC(CN(c3ccc(S(=O)(=O)NC(=O)c4ccc(N5CCN(Cc6ccccc6-c6ccc(Cl)cc6)CC5)cc4)cc3)C1=O)C2 [Example 14, 4-{4-[(4′-chlorobiphenyl-2-yl)methyl]piperazin-1-yl}-N-{[4-(1-methyl-2-oxo-3-azabicyclo[3.1.1]hept-3-yl)phenyl]sulfonyl}benzamide] | 47.4 nM
CC1(C)[C@H]2C=C(c3ccccc3CN3CCN(c4ccc(C(=O)NS(=O)(=O)c5ccc(NCC6CCOCC6)c([N+](=O)[O-])c5)cc4)CC3)[C@]1(C)CC2 [Example 15, N-({3-nitro-4-[(tetrahydro-2H-pyran-4-ylmethyl)amino]phenyl}sulfonyl)-4-(4-{2-[(1R,4R)-1,7,7-trimethylbicyclo[2.2.1]hept-2-en-2-yl]benzyl}piperazin-1-yl)benzamide] | < 20 nM
